Laboratory results: PMC10331597 (Redox Biology, 2023)

Target: Keap1 (Homo sapiens, UniProt Q14145)
Test: Fluorescence anisotropy assay
Format: binding
Details: for Kd: Keap1-Nrf2 binding affinity, fluorescence anisotropy assay, duplicated experiment, average; for activity in Keap1-Nrf2 fluorescence anisotropy assay: at 10 μM

Keap1, sequence (Q14145 whole entry): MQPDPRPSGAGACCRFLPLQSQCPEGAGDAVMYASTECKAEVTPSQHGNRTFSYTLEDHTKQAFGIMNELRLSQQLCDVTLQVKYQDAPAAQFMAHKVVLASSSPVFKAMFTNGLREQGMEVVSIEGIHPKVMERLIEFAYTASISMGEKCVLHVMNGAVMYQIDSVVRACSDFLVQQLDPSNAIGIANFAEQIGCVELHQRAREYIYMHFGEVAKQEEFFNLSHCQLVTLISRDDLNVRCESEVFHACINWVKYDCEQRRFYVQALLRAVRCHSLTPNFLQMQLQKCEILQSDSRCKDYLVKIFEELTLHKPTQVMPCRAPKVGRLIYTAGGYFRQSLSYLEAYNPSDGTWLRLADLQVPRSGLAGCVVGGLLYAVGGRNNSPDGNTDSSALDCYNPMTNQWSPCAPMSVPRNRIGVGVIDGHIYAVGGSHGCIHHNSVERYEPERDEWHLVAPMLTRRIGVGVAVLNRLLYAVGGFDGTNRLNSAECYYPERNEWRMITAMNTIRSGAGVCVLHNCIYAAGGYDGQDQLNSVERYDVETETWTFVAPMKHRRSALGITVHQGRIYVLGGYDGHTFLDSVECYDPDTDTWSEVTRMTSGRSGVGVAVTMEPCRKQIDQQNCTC

Structure (SMILES) | Kd [nM] | activity in Keap1-Nrf2 fluorescence anisotropy assay
COc1ccc(S(=O)(=O)N(CC(N)=O)c2ccc(N(CC(N)=O)S(=O)(=O)c3cccs3)c3ccccc23)cc1 [Compound A4, 2-(N-(4-((N-(2-amino-2-oxoethyl)-4-methoxyphenyl)sulfonamido)naphthalen-1-yl)thiophene-2-sulfonamido)acetamide] | 1110 | 
COc1ccc(S(=O)(=O)N(CC(N)=O)c2ccc(N(CC(N)=O)S(=O)(=O)N3CCOCC3)c3ccccc23)cc1 [Compound A6, 2-(N-(4-((N-(2-amino-2-oxoethyl)-4-methoxyphenyl)sulfonamido)naphthalen-1-yl)morpholine-4-sulfonamido)acetamide] | 2070 | 
COc1ccc(S(=O)(=O)N(CC(N)=O)c2ccc(N(CC(N)=O)S(=O)(=O)c3ccc(-c4ccccc4)cc3)c3ccccc23)cc1 [Compound A3, 2-(N-(4-((N-(2-amino-2-oxoethyl)-4-methoxyphenyl)sulfonamido)naphthalen-1-yl)-[1,1'-biphenyl]-4-sulfonamido)acetamide] | > 10000 | did not show apparent activity
COc1ccc(S(=O)(=O)N(CC(N)=O)c2ccc(N(CC(N)=O)S(=O)(=O)c3ccc(Cl)nc3)c3ccccc23)cc1 [Compound A5, 2-((N-(4-((N-(2-amino-2-oxoethyl)-4-methoxyphenyl)sulfonamido)naphthalen-1-yl)-6-chloropyridine)-3-sulfonamido)acetamide] | > 10000 | did not show apparent activity
COc1ccc(S(=O)(=O)N(CC(N)=O)c2ccc(N(CC(N)=O)S(=O)(=O)c3ccc4ccccc4c3)c3ccccc23)cc1 [Compound A2, 2-(N-(4-((N-(2-amino-2-oxoethyl)-4-methoxyphenyl)sulfonamido)naphthalen-1-yl)naphthalene-2-sulfonamido)acetamide] | 1300 | 
COc1ccc(S(=O)(=O)N(CC(N)=O)c2ccc(N(CC(N)=O)S(=O)(=O)c3cccc4ccccc34)c3ccccc23)cc1 [Compound A1, 2-(N-(4-((N-(2-amino-2-oxoethyl)-4-methoxyphenyl)sulfonamido)naphthalen-1-yl)naphthalene-1-sulfonamido)acetamide] | > 10000 | did not show apparent activity

Next, values leading:

Kd [nM] | activity in Keap1-Nrf2 fluorescence anisotropy assay | Structure (SMILES)
1150 |  | COc1ccc(S(=O)(=O)N(CC(N)=O)c2ccc(N(CC(N)=O)S(=O)(=O)c3cn(C)cn3)c3ccccc23)cc1 [Compound A8, 2-((N-(4-((N-(2-amino-2-oxoethyl)-1-methyl-1H-imidazole)-4-sulfonamido)naphthalen-1-yl)-4-methoxyphenyl)sulfonamido)acetamide]
1140 |  | COc1ccc(S(=O)(=O)N(CC(N)=O)c2ccc(N(CC(N)=O)S(=O)(=O)c3cnn(C)c3)c3ccccc23)cc1 [Compound A9, 2-((N-(4-((N-(2-amino-2-oxoethyl)-1-methyl-1H-pyrazole)-4-sulfonamido)naphthalen-1-yl)-4-methoxyphenyl)sulfonamido)acetamide]
> 10000 | did not show apparent activity | COc1ccc(S(=O)(=O)N(CC(N)=O)c2ccc(N(CC(N)=O)S(=O)(=O)c3c(C)noc3C)c3ccccc23)cc1 [Compound A12, 2-((N-(4-((N-(2-amino-2-oxoethyl)-3,5-dimethylisoxazole)-4-sulfonamido)naphthalen-1-yl)-4-methoxyphenyl)sulfonamido)acetamide]
1280 |  | COc1ccc(S(=O)(=O)N(CC(N)=O)c2ccc(N(CC(N)=O)S(=O)(=O)c3ccc4c(c3)CCO4)c3ccccc23)cc1 [Compound A11, 2-((N-(4-((N-(2-amino-2-oxoethyl)-2,3-dihydrobenzofuran)-5-sulfonamido)naphthalen-1-yl)-4-methoxyphenyl)sulfonamido)acetamide]
3270 |  | COc1ccc(S(=O)(=O)N(CC(N)=O)c2ccc(N(CC(N)=O)S(=O)(=O)c3c(C)c(C)c4c(c3C)CC(C)(C)O4)c3ccccc23)cc1 [Compound A10, 2-((N-(4-((N-(2-amino-2-oxoethyl)-2,2,4,6,7-pentamethyl-2,3-dihydrobenzofuran)-5-sulfonamido)naphthalen-1-yl)-4-methoxyphenyl)sulfonamido)acetamide]
1430 |  | COc1ccc(S(=O)(=O)N(CC(N)=O)c2ccc(N(CC(N)=O)S(=O)(=O)c3sc(N(CC(N)=O)C(C)=O)nc3C)c3ccccc23)cc1 [Compound A7, N-(2-amino-2-oxoethyl)-N-(5-(N-(2-amino-2-oxoethyl)-N-(4-((N-(2-amino-2-oxoethyl)-4-methoxy-phenyl)sulfonamido)naphthalen-1-yl)sulfamoyl)-4-methylthiazol-2-yl)acetamide]
> 10000 | did not show apparent activity | COc1ccc(S(=O)(=O)N(CC(N)=O)c2ccc(N(CC(N)=O)S(=O)(=O)c3sc4ccc(Cl)cc4c3C)c3ccccc23)cc1 [Compound A13, 2-((N-(4-((N-(2-amino-2-oxoethyl)-4-methoxyphenyl)sulfonamido)naphthalen-1-yl)-5-chloro-3-methylbenzo[b]thiophene)-2-sulfonamido)acetamide]
